The text below walks through data of patent US6521659B2, “Compositions containing a substituted indolealkanoic acid and an angiotensin converting enzyme inhibitor” (Institute for Pharmaceutical Discovery, LLC, priority 2000, dated 2003).

Read-outs that look alike come from different tables or passages of the source.

The test system of one assay is diabetic (db/db) mice. The experiment in a line: Blood glucose lowering in diabetic (db/db) mice. The assay is classed as in vivo, mouse. To be noted: for Blood glucose: n = 12. The method, then:
The mice are obese, extremely hyperglycemic and also hyperinsulinemic.
Male db/db mice (8 weeks old) were obtained from Jackson Laboratories and were allowed to acclimate for 1 week before the experiment commenced. A sample of blood was collected from the tail after which plasma glucose was isolated by centrifigation and the glucose concentration was measured in the plasma enzymatically on the COBAS automated clinical analyzer equipped with a glucose kit that utilized hexokinas to quantitate the amount of glucose in a sample (Roche Diagnostic Systems, kit #47382). Mice with the lowest plasma glucose values were removed from the study and the remaining mice were randomized according to their individual plasma glucose values into 3 treatment groups (n=12 per group), control untreated db/db mice, 100 mg/kg/d compound treated db/db mice and 300 mg/kg/d compound treated db/db mice.
Treatment with the compound was carried out for 4 weeks during which time blood glucose levels were measured weekly from the tail using the One Touch II blood glucose meter (Lifescan, Inc). The blood glucose values of mice in the compound treated groups was compared to the blood glucose values of mice from the control untreated group by an analysis of variance followed by Dunett's Comparison Test (one-tailed).

For assay [1], the system named is streptozotocin-induced diabetic rats. The experiment in a line: Serum/plasma triglyceride levels in streptozotocin-induced diabetic rats. The class given is in vivo, rat. To be noted: 10 mg/kg/day. The method, then:
Tests are conducted to determine the effect of compounds on serum triglyceride levels in streptozotocin-induced diabetic rats.
Control animals receive citrate buffer.
Two hours after STZ injection, food is returned.
The nondiabetic and diabetic control groups are administered vehicle.

The next assay deals with rat aortic ring. The experiment in a line: Rat aortic ring assay (anti-angiogenic activity). The class given is cell-based. On the procedure: Final concentration of DMSO in all wells is 1%.
Statistical analysis conducted with Kruskal-Wallis Test and Dunns multiple comparisons

Assay [2] has as its system STZ treated diabetic minipigs. In words: Wound healing in STZ treated diabetic minipigs. The assay is classed as in vivo, minipig. Conditions: STZ diabetic minipigs with wounds, compared with untreated control STZ diabetic minipigs. The method, then:
STZ treated diabetic minipigs having various wounds are administered the compound of Example 3. These animals are compared with control STZ diabetic minipigs also having wounds but that are not treated with the compound. […] Accordingly, the compounds of the invention are capable of promoting wound healing in diabetic mammals.

Turning to `O=C(O)Cn1cc(Cc2nc3c(F)c(F)cc(F)c3s2)c2ccccc21` [Example 3, 3-(4,5,7-Trifluorobenzothiazol-2-yl)methyl-indole-N-acetic Acid], the Blood glucose was determined as 323 ± 79 mg/dL in the assay with diabetic (db/db) mice (100 mg/kg/d in diet, Week 0, mean ± SD); 284 ± 75 mg/dL with diabetic (db/db) mice (100 mg/kg/d in diet, Week 2, mean ± SD); 258 ± 60 mg/dL with diabetic (db/db) mice (100 mg/kg/d in diet, Week 3, mean ± SD); 303 ± 79 mg/dL in the assay with diabetic (db/db) mice (100 mg/kg/d in diet, Week 4, mean ± SD); 313 ± 52 mg/dL in the assay with diabetic (db/db) mice (300 mg/kg/d in diet, Week 0, mean ± SD); 240 ± 85 mg/dL with diabetic (db/db) mice (300 mg/kg/d in diet, Week 2, mean ± SD). Also, the Blood glucose in the assay on diabetic (db/db) mice (300 mg/kg/d in diet, Week 3, mean ± SD) came out at 197 ± 77 mg/dL; in the assay on diabetic (db/db) mice (300 mg/kg/d in diet, Week 4, mean ± SD) it was 207 ± 77 mg/dL. The “mean percent change in glucose with drug treatment (lowering)” value with diabetic (db/db) mice (100 mg/kg/d, after four weeks) worked out at 12%. The “mean percent change in glucose with drug treatment (lowering of blood glucose)” value in the assay on diabetic (db/db) mice (300 mg/kg/d, after four weeks) stood at 40%. The “Triglyceride lowering compared to diabetic” value in assay [1] (STZ diabetic rats, 10 mg/kg/d by gavage) came to 68%. The Plasma triglycerides in assay [1] (po, 4 h) turned out to be 149 ± 29 mg/dL. Also, the “Linear Microvascular Growth” value was 1.97 ± 0.66, n = 5 mm in the assay on rat aortic ring; 2.31 ± 0.71, n = 5 mm in the assay with rat aortic ring (50 µM); 1.46 ± 0.48, n = 6 mm in the assay on rat aortic ring (Prevention (Days 1-6), 50 micromolar, mean ± SD, n = 6). Moreover, the “degree of wound healing” value in assay [2] was “significant increase in the degree of wound healing”.
